Our source for the Emax and EC50 values is patent US6043279A, “Compounds having selective activity for retinoid X receptors, and means for modulation of processes mediated by retinoid X receptors” (priority 1997, dated 2000).

What all share (format): cell-based
Assay [1] has as its target T1, RXRβ (Mus musculus, UniProt P28704).
T1 construct: expressed in transfected cells; host or cells: CV-1 (monkey kidney)
T1 sequence (P28704 1-520): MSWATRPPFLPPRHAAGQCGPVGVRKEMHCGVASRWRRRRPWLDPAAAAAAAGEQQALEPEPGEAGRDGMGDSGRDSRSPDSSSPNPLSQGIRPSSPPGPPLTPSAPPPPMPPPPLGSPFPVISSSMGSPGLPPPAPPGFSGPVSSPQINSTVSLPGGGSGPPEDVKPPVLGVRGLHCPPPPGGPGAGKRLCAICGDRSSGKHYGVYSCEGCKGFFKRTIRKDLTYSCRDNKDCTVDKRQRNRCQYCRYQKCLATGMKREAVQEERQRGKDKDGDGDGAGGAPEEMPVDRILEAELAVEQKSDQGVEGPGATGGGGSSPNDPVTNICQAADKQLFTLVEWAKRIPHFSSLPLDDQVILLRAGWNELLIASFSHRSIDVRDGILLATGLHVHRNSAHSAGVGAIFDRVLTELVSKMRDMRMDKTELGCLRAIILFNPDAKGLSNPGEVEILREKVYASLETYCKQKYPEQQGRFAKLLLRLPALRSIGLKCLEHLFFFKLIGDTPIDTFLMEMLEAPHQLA
In words: co-transfection (cis-trans) assay in CV-1 cells, RXRβ. As to conditions: for Emax: CV-1, maximal response relative to all-trans-retinoic acid at 10^-5 M, read-out: Efficacy RXRβ; for EC50: CV-1 cells, luciferase reporter, concentration giving 50% of maximal observed response, read-out: Potency (nM) RXRβ. An excerpt:
(§1) The co-transfection assay provides a mechanism to evaluate the ability of a compound to modulate the transcription response initiated by an intracellular receptor. […] Berger et al., J. Steroid Biochem. Molec.
(§2) Briefly, the co-transfection assay involves the introduction of two plasmids by transient transfection into a retinoid receptor-negative mammalian cell background. The first plasmid contains a retinoid receptor cDNA and directs constitutive expression of the encoded receptor. The second plasmid contains a cDNA that encodes for a readily quantifiable protein, e.g., firefly luciferase or chloramphenicol acetyl transferase (CAT), under control of a promoter containing a retinoid acid response element, which confers retinoid dependence on the transcription of the reporter. In this co-transfection assay, all retinoid receptors respond to all-trans-retinoic acid in a similar fashion. This assay can be used to accurately measure efficacy and potency of retinoic acid and synthetic retinoids as ligands that interact with the individual retinoid receptor subtypes.
(§3) Accordingly, synthetic retinoid compounds of the current invention were evaluated for their interaction with retinoid receptor subtypes using the co-transfection assay in which CV-1 cells were co-transfected with one of the retinoid receptor subtypes, a reporter construct, and an internal control to allow normalization of the response for transfection efficiency. The following example is illustrative.
(§4) Retinoids: All-trans-retinoic acid (RA) and 13-cis-retinoic acid (13-cis-RA) were obtained from Sigma. […] Retinoids were dissolved in dimethylsulfoxide for use in the transcriptional activation assays.
(§5) Co-transfection Assay In CV-1 Cells: A monkey kidney cell line, CV-1, was used in the cis-trans assay. Cells were transfected with two plasmids. […] The cis-vector contains an easily assayable gene product, in this case the firefly luciferase, coupled to a retinoid-responsive promoter, i.e., an RARE or RXRE. Addition of retinoic acid or an appropriate synthetic retinoid results in the formation of a retinoid-RAR or -RXR complex that activates the expression of luciferase gene, causing light to be emitted from cell extracts. The level of luciferase activity is directly proportional to the effectiveness of the retinoid-receptor complex in activating gene expression. This sensitive and reproducible co-transfection approach permits the identification of retinoids that interact with the different receptor isoforms.
Cells were cultured in DMEM supplemented with 10% charcoal resin-stripped fetal bovine serum, and experiments were conducted in 96-well plates. […] Cells were transfected for 6 h and then washed to remove the precipitate. The cells were then incubated for 36 h with or without retinoid. After the transfection, all subsequent steps were performed on a Beckman Biomek Automated Workstation. […] All determinations were performed in triplicate in two independent experiments and were normalized for transfection efficiency by using β-galactosidase as the internal control. […] Efficacy values less than 5% are not statistically different than the 0% background.

Assay [2] deals with T2, RARα (Homo sapiens, UniProt P10276).
T2 construct: expressed in transfected cells; host or cells: CV-1 (monkey kidney)
T2 sequence (P10276 1-462): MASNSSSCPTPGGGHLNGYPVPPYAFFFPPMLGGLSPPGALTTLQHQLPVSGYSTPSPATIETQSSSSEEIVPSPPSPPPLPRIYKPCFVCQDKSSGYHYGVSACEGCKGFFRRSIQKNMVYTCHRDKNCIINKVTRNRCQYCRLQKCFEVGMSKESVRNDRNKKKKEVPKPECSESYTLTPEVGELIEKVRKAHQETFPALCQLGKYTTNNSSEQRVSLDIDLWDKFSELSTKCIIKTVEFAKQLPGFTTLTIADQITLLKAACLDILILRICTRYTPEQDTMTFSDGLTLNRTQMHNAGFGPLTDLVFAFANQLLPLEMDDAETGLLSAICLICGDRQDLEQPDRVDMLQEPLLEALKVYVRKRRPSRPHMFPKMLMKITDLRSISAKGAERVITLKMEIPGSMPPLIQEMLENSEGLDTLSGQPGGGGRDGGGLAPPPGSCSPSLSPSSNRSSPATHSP
In words: co-transfection (cis-trans) assay in CV-1 cells, RARα. As to conditions: for Emax: CV-1, maximal response relative to all-trans-retinoic acid at 10^-5 M, read-out: Efficacy RARα; for EC50: CV-1 cells, luciferase reporter, concentration giving 50% of maximal observed response, read-out: Potency (nM) RARα.
From the text: as §1, §2, §3, §4, §5
(§6) Cells were cultured in DMEM supplemented with 10% charcoal resin-stripped fetal bovine serum, and experiments were conducted in 96-well plates. […] Cells were transfected for 6 h and then washed to remove the precipitate. The cells were then incubated for 36 h with or without retinoid. […]
(A reporter such as luciferase makes a cellular process visible.)

Assay [3] concerns the target T3, RARγ (Homo sapiens, UniProt P13631).
T3 construct: expressed in transfected cells; host or cells: CV-1 (monkey kidney)
T3 sequence (P13631 1-454): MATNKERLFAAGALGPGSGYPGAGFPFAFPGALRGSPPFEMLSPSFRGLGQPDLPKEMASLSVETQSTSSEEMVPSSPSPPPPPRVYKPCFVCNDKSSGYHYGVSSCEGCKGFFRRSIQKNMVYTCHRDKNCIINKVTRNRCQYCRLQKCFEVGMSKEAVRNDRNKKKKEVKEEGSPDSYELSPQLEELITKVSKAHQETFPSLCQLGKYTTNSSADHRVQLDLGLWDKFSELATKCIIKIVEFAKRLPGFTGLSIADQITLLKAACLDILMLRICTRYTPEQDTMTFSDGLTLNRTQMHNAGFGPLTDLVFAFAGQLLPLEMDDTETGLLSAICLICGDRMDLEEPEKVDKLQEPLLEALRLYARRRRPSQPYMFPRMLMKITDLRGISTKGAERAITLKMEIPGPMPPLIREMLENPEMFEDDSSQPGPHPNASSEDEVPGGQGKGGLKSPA
Kind of assay: co-transfection (cis-trans) assay in CV-1 cells, RARγ. As to conditions: for Emax: CV-1, maximal response relative to all-trans-retinoic acid at 10^-5 M, read-out: Efficacy RARγ; for EC50: CV-1 cells, luciferase reporter, concentration giving 50% of maximal observed response, read-out: Potency (nM) RARγ.
From the text: as §1, §2, §3, §4, §5, §6

As for `C=C(c1ccc(C(=O)O)cc1)c1ccc(C(C)(C)C)cc1C` [Compound 133, 4-[1-(2-methyl-4-t-butylphenyl)ethenyl]benzoic acid], the Emax in assay [1] is 56%; in assay [2] it was less than 2%; in assay [3], less than 2%. Besides, the EC50 in assay [1] is 470 nM; in assay [2], more than 10000 nM; in assay [3] it was more than 10000 nM.
Take `Cc1cc(C(C)(C)C)ccc1C(=NO)c1ccc(C(=O)O)cc1` [Compound 137, 4-[(2-methyl-4-t-butylphenyl)carbonyl]benzoic acid oxime]: the Emax is 57% in assay [1], less than 2% in assay [2] and less than 2% in assay [3]. Moreover, the EC50 in assay [1] is 270 nM; in assay [2], more than 10000 nM; in assay [3] it was more than 10000 nM.
